Type in all cases: cell-based, human
The subject of one assay is HT-29. In words: Cytotoxicity in the presence of necrostatin-1, HT-29 cells. As to conditions: necrostatin-1 60 μM, t test p<0.05. As to the method:
(§1) In order to determine the cell-killing mechanism of 1 and 2, cytotoxicity studies in the presence of apoptosis and necrosis inhibitors were conducted. […] The possibility that 1 and 2 induce necroptosis was then investigated. Necroptosis is a well-regulated mode of cell death that is different from unregulated necrosis and apoptosis. Unlike unregulated necrosis, which can be induced by H2O2 or heat, necroptosis generally involved the interaction of protein kinases, RIP1 and RIP3, to initiate cell disintegration. This process can be blocked by necrostatin-1, a potent RIP1 kinase inhibitor. To determine whether 1 and 2 induced necroptosis and/or uncontrolled necrosis, cytotoxicity studies were conducted in the presence of necrostatin-1 (60 μM) and IM-54 (10 μM), an inhibitor of H2O2-induced necrosis. […] Therefore, 1- and 2-induced cell death relies on RIP1-RIP3 complex formation and not on the expression levels of the individual protein kinases. RIP1 can also form a cytosolic complex with Fas-associated death domain (FADD) and caspase 8, known as a ripoptosome, to initiate apoptosis (through caspase 8 cleavage).
Cytotoxicity MTT Assay. […] Cells (2×10^3 cells/well) were seeded in a 96-well plate. […] The absorbance of the solution wells was read at 550 nm. Absorbance values were normalized to DMSO-containing control wells and plotted as the concentration of test compound versus % cell viability. […]

For assay [1], the system named is A549 cells. In words: Hoechst 33258/propidium iodide double staining, fluorescence microscopy. To be noted: for nuclear staining, Hoechst 33258 and PI uptake: 20 μM for 12 h; for PI staining on co-incubation with necrostatin-1: necrostatin-1 60 μM for 12 h. As to the method:
Intracellular ROS production and mitochondrial membrane depletion contribute to necroptosis. Cells undergoing necroptosis display necrosis-like morphological features such as loss of cell membrane integrity, increase in organelle and cell volume (oncosis), and intact nuclear membrane. To further test whether 1- and 2-treatment can trigger necroptosis, Hoechst 33258/propidium iodide (PI) double staining was carried out to determine nuclear membrane morphology and integrity. Hoechst 33258 is a DNA minor groove binder that is routinely used to visualize the nucleus without the need for cell permeabilization. When used without cell permeabilization agents, PI stains the nuclei of necrotic cells. Early-stage apoptotic and normal cells maintain cell membrane integrity and thus are not stained by PI. A549 cells were treated with 1 and 2 (20 μM for 12 h), incubated with Hoechst 33258 and PI, and imaged using a fluorescence microscope.
Fluorescence Microscopy. A549 cells (1.5×10^6 cells/well) were incubated with and without 1 and 2 (20 μM) for 12 h. The media were then removed, and the cells were washed with additional media (2 mL×2). After incubation of the cells with more media containing Hoechst 33258 (7.5 μM) and PI (5 μM), the nuclear regions were imaged using a fluorescence microscope. Fluorescence imaging experiments were performed using a Zeiss Axiovert 200M inverted epifluorscence microscope with a Hamamatsu EM-CCD digital camera C9100 and a MS200 XY Piezo Z stage (Applied Scientific Instruments, Inc.). An X-Cite 120 metal halide lamp (EXFO) was used as the light source. Zeiss standard filter set 49 was employed for imaging the nuclear region. The microscope was operated with Volocity software (version 6.01, Improvision). The exposure time for acquisition of fluorescence images was kept constant for each series of images at each channel.

Assay [2] concerns A549 cells. In words: Immunoblotting analysis of treated A549 cells. To be noted: for cleaved caspases 7 and 9: 50-500 nM for 72 h; for FADD and cleaved caspase 8 expression: increasing concentration; for overall expression level of RIP1 and RIP3: increasing dosages. As to the method:
as §1
(PARP-1). PARP-1 is a nuclear enzyme that is involved in DNA repair and transcriptional regulation. DNA damage can trigger PARP-1 activity, resulting in ATP and NAD depletion and bioenergetics- mediated cell death. To determine whether PARP-1 activity is a factor in 1- and 2-mediated cell death, cytotoxicity assays were conducted with wild-type mouse embryonic fibroblast cells (MEFs PARP-1+/+) and the corresponding PARP-1-null cells (MEFs PARP-1−/−). […] Recently, p53 has also been reported to play a role in necroptosis. p53 induces cathepsin Q, a lysosomal protease that cooperates with ROS to execute necrosis. To investigate whether p53 might play a role in 1- and 2-mediated necroptosis, cytotoxicity studies were conducted with HCT116 p53^+/+ nd HCT116 p53^−/− cells.
Immunoblotting Analysis. A549 cells (1.5×10^6 cells/well) grown in six-well plates were incubated with 1 and 2 (concentrations, sub-μM) for 72 h at 37° C. Cells were washed with PBS, scraped into SDS-PAGE loading buffer (64 mM Tris-HCl (pH 6.8)/9.6% glycerol/2% SDS/5% /1-mercaptoethanol/0.01% Bromophenol Blue), and incubated at 95° C. for 10 min. Whole cell lysates were resolved by 4-20% sodium dodecyl sulfate polyacylamide gel electrophoresis (SDS-PAGE; 200 V for 25 min), followed by electro-transfer to polyvinylidene difluoride membrane (350 mA for 1 h). Membranes were blocked in 5% (w/v) non-fat milk in PBST (PBS/0.1% Tween 20) and incubated with the appropriate primary antibodies (Cell Signalling Technology and Santa Cruz). After incubation with horseradish peroxidase-conjugated secondary antibodies (Cell Signalling Technology), immuno complexes were detected with the ECL detection reagent (BioRad) and analyzed using an Alpha Innotech Chemilmager 5500 instrument fitted with a chemiluminescence filter.
(In general: A western blot detects proteins with antibodies after separation by electrophoresis.)

Structures are written as SMILES.

Consider `C[O][Re](=[O])([Cl])[Cl].c1ccc(-c2ccnc3c2ccc2c(-c4ccccc4)ccnc23)cc1` [Compound 1, [ReO(OMe)(4,7-diphenyl-1,10-phenanthroline)-Cl2]], for which the “effect of co-incubation with necrostatin-1 on toxicity, HT-29” value in the assay on HT-29 is reported as “markedly decreased the toxicity”. Further, in the assay on A549 cells [1], the “nuclear staining, Hoechst 33258 and PI uptake” value is on record as “pink nuclei”; the “PI staining on co-incubation with necrostatin-1” value was “unstained by PI”. For the same molecule, in the assay with A549 cells [2], the “markers of DNA damage, phosphorylated H2AX (γH2AX) and CHK2” value is “did not up-regulate”; the “cleaved caspases 7 and 9” value is “not detected”; the “FADD and cleaved caspase 8 expression” value is on record as “remained unaltered”; the “overall expression level of RIP1 and RIP3” value is recorded as “remained unchanged”.
Consider `C[O][Re-2]1(=[O])([Cl])([Cl])[n+]2cc(C)c(C)c3ccc4c(C)c(C)c[n+]1c4c32` [Compound 2, [ReO(OMe)(3,4,7,8-tetramethyl-1,10-phenanthroline)Cl2]], for which the “effect of co-incubation with necrostatin-1 on toxicity, HT-29” value in the assay on HT-29 is given as “markedly decreased the toxicity”. Besides, in the assay with A549 cells [1], the “nuclear staining, Hoechst 33258 and PI uptake” value is reported as “pink nuclei”; the “PI staining on co-incubation with necrostatin-1” value is reported as “unstained by PI”. In addition, in the assay with A549 cells [2], the “markers of DNA damage, phosphorylated H2AX (γH2AX) and CHK2” value is listed as “did not up-regulate”; the “cleaved caspases 7 and 9” value is “not detected”; the “FADD and cleaved caspase 8 expression” value is “remained unaltered”; the “overall expression level of RIP1 and RIP3” value is recorded as “remained unchanged”.

(Values after patent US20150299233A1, “COMPOSITIONS AND METHODS COMPRISING RHENIUM FOR THE TREATMENT OF CANCERS” (Massachusetts Institute of Technology, priority 2014, published 2015).)
